Reference: patent US9109001B2, “3′,5′-cyclic phosphoramidate prodrugs for HCV infection” (priority 2012, dated 2015)

Key:
[1] = Stability in human liver S9 fraction; type: in vitro ADME; conditions: 10 μM, 1.0 mg/mL protein, NADPH, 60 min; percent unchanged
Procedure: (§1) Stability in Liver and Intestinal Subcellular Fractions: Stability of test compounds were determined in subcellular fractions (microsomes and S9) of human liver and intestine in duplicate for each matrix. Pooled liver and intestinal microsomal, intestinal and liver S9 proteins (1.0 mg/mL), suspended in incubation buffer (100 mM potassium phosphate, pH 7.4, 5 mM MgCl2, and 0.1 mM EDTA), were preincubated for 5 min at 37° C. with 10 μM of a test compound from a 10 mM stock solution in DMSO (final DMSO concentration was 0.1%); the reaction was initiated by the addition of NADPH (3 mM final concentration). At specific times (0 and 60 min), 0.1 mL samples were taken and the reaction terminated by the addition of 4 volumes of stop solution (acetonitrile with 500 ng/mL carbutamide as an internal standard). The samples were vortexed for 30 sec and then centrifuged at 16,000 g for 10 min. 100 μL of supernatants were transferred to 96 deep-well plates preloaded with 100 μL distilled water and analyzed after mixing by LC-MS/MS. The MS peak area ratio of the test compound versus the internal standard was calculated and percent unchanged test compound over 60 minutes was calculated using this ratio.

[2] = Stability in human liver microsomes; type: in vitro ADME; conditions: 10 μM, 1.0 mg/mL protein, NADPH, 60 min; percent unchanged
Procedure: as §1

[3] = Stability in fresh human whole blood; type: in vitro ADME; conditions: 0.5 μM, percent unchanged test compound
Procedure: Stability in Fresh Whole Blood: Stability of test compounds were determined in fresh human whole blood with K2EDTA as the anticoagulant (stored refrigerated at 2-8° C. and used within 7 days of receipt). The experiment was conducted with three replicates for each time point. Whole blood, pre-incubated at 37° C. for 10-15 minutes, was fortified with a solution of test compound for a final concentration of 0.5 μM and mixed for 30 sec. At intervals (0, 0.5, 1 and 2 hr), three 50-μL aliquots were combined with 200 μL (each) of an ice-cold solution of the internal standard (carbutamide 500 ng/mL in acetonitrile). The samples were vortexed for 30 sec and then centrifuged at 16,100 g for 5 min. The supernatant was analyzed by LC-MS/MS. The MS peak area ratio of the test compound versus the internal standard was calculated and percent unchanged test compound was calculated for each time point using this ratio.

[4] = Plasma and liver pharmacokinetics following a single oral dose in CD-1 mice; type: in vivo; conditions: CD-1 male mice; for Ms Liver 2′-MeGTP AUC (pmol · hr/g at 1 μmol/kg): single oral dose 25 mg/kg in PEG 200, liver 2′-MeGTP; for Ms Plasma 2′-MeG AUC (pmol · hr/mL at 1 μmol/kg) / Ms Plasma 2′-MeG Cmax (pmol/mL at 1 μmol/kg): single oral dose 25 mg/kg in PEG 200, plasma 2′-MeG
Procedure: Plasma samples were analyzed for 2′-methylguanosine (2′-MeG) by LC-MS/MS. The internal standard (IS) was 2′-MeG-D3. For protein precipitation and extraction, each plasma sample (50 μL) was treated with 500 μL of 0.2% formic acid in acetonitrile and 20 μL of the internal standard working solution. After vortexing and centrifugation, 500 μL of the sample extracts were transferred to a new plate, dried under N2 at ˜28° C. and reconstituted with 75 μL of 0.2% FA in water. The extracts were chromatographed on an Aquasil C18 column using a gradient system of 0.2% formic acid in water and acetonitrile. The analytes were detected and quantified by tandem mass spectrometry in positive ion mode on an MDS Sciex API5000 equipped with a Turbo Ionspray® interface. The calibration range was 0.500 (LLOQ) to 200 ng/mL in mouse plasma. The corresponding range for molar units is 1.68 to 673 pmol/mL.
Liver samples were analyzed for the active species 2′-methylguanosine triphosphate (2′-MeGTP) by LC-MS/MS. […] Internal standard solution was added to the homogenate followed by neutralization with 20% ammonium hydroxide solution and addition of 500 μL 1% formic acid. The tissue samples were extracted by weak anion exchange solid phase extraction (SPE). Post extraction, the eluates were evaporated under nitrogen, followed by reconstitution before injection onto the LC-MS/MS system. […] The calibration range was 10 to 10000 pmol/mL in mouse liver homogenate (50 to 50000 pmol/g of mouse liver).

fresh human hepatocytes = assay: Release of active metabolite in fresh human hepatocytes; type: in vitro ADME; conditions: 10 μM
Procedure: Assay for the Release of Active Metabolite in Primary Hepatocytes: Plates of fresh human and mouse hepatocytes were obtained on ice. The medium was removed and replaced with hepatocyte culture medium (William's E supplemented with penicillin-streptomycin, 1% L-glutamine, 1% insulin-transferrin-selenium and 0.1 μM Dexamethasone (Invitrogen) or with Invitro GRO HI medium complemented with Torpedo antibiotics (Celsis)). Cells were left overnight in an incubator at 37° C. to acclimatize to culture and the medium.
Hepatocyte incubations were conducted at a final volume of 0.5 mL hepatocyte culture medium/well (0.8 million cells/well for human and 0.5 million cells/well for mouse; 12 well plate no overlay, collagen coat). Culture medium from overnight incubation of cells was removed and replaced with fresh medium, pre-warmed to 37° C., containing 10 μM of test compound from a stock solution in DMSO (final DMSO concentration was 0.1%). At each specific time point, incubation medium was removed and cell monolayers were carefully washed two times with ice-cold PBS. Following the last wash, all PBS was carefully removed and 1.0 mL of extraction solution (ice-cold 70% methanol/30% water) added. Cells were scraped off and suspended in the extraction solution, transferred to 2 mL polypropylene microfuge tubes and intracellular contents extracted overnight at −20° C.
After the overnight treatment the cellular extracts were prepared by centrifugation at 16,000×g for 10 min to remove cellular debris. The remaining sample was then dried using a refrigerated centrivap concentrator. Dry extracts were reconstituted in 1000 μL of HPLC-grade water and centrifuged at 16,000×g for 10 min. Aliquots (100 μL each) of the supernatant were transferred into a 96 well plate and internal standard (4 ng/mL final concentration) was added as the internal standard (IS) for LC-MS/MS analysis.
The incubation time points were 6, 24 and 48 hours for human hepatocytes and 1, 4, 8, 12 and 24 hours for mouse hepatocytes.

SMILES	Stability HLS9 (1 hr) [1]	Stability HLM (1 hr) [2]	Stability WB_Human (37° C.; 2 hr) [3]	Ms Liver 2′-MeGTP AUC (pmol · hr/g at 1 μmol/kg) [4]	Ms Plasma 2′-MeG AUC (pmol · hr/mL at 1 μmol/kg) [4]	Ms Plasma 2′-MeG Cmax (pmol/mL at 1 μmol/kg) [4]	FHH TP AUC (pmol · hr/mill cells) (fresh human hepatocytes)	FHH TP Cmax (pmol/mill cells) (fresh human hepatocytes)	FHH TP (24 hr) (fresh human hepatocytes; 24 hr)	FHH TP (48 hr) (fresh human hepatocytes; 48 hr)
CCOc1nc(N)nc2c1ncn2[C@@H]1O[C@@H]2COP(=O)(N[C@@H](C)C(=O)OC(C)C)O[C@H]2[C@@]1(C)F (single isomer, unassigned) [Compound 1 Diastereomer 1]	51%	11%	87%	2400 pmol · hr/g at 1 μmol/kg	110 pmol · hr/mL at 1 μmol/kg	14 pmol/mL at 1 μmol/kg	9842 pmol · hr/mill cells	687 pmol/mill cells	BLD^a	–
CCOc1nc(N)nc2c1ncn2[C@@H]1O[C@@H]2COP(=O)(N[C@@H](C)C(=O)OC(C)C)O[C@H]2[C@@]1(C)F (single isomer, unassigned) [Compound 1 Diastereomer 2]	66%	52%	67%	810 pmol · hr/g at 1 μmol/kg	92 pmol · hr/mL at 1 μmol/kg	9.8 pmol/mL at 1 μmol/kg	5774 pmol · hr/mill cells	309 pmol/mill cells	–	BLD^a
